From patent publication US8637090B2, “Gallium formulation for the treatment and prevention of infectious diseases” (Aridis Pharmaceuticals, priority 2009, dated 2014)
Read-outs that look alike come from different tables or passages of the source.

Legend:
[1] = Crystallinity of spray dried gallium powders by powder X-ray diffraction; assay type: physicochemical; conditions: qualitative analysis of crystallinity, XRD 5° to 75° 2θ
Experimental: Crystallinity of the spray dried gallium powders was determined using a Philips X-Pert Pro MPD powder diffractometer. The radiation used was generated by a Cu Kα source with a wavelength of 1.5406 Å at 45 kV and 40 mA. Samples were scanned from 5° to 75° 2θ at a scanning rate of 1.2° 2θ/min using a slit width of 0.25°. Particular emphasis was placed on determining the effects of the various excipients on the crystallinity of the spray dried particles. The composition of the gallium formulations examined, as well as the residual moisture content and a qualitative analysis of crystallinity are shown in Table 8. X-ray diffractometer (XRD) scans reveal that spray dried gallium nitrate is amorphous as are mannitol and L-leucine (FIG. 5). Sodium citrate, however, is crystalline and the crystallinity is maintained even in the presence of other excipients.

B. anthracis 7702 cells = assay type: cell-based; conditions: 1:1 gallium-to-citrate, approximately 20 hours of growth
[2] = test system: Pseudomonas aeruginosa (Pa); conditions: against Pa; cited from earlier work
Pa = conditions: mouse; nasal instillation of a bolus of liquid; also under in vivo Pa biofilm colonization conditions; cited from earlier work

SMILES: O=[N+]([O-])[O-].O=[N+]([O-])[O-].O=[N+]([O-])[O-].[Ga+3] [Gallium, gallium nitrate]
- Crystalline/Amorphous [1]: amorphous
- OD600 nm (B. anthracis 7702 cells; Gallium concentration 6.8 μM): 0.000
- OD600 nm (B. anthracis 7702 cells; Gallium concentration 23.3 μM): 0.000
- OD600 nm (B. anthracis 7702 cells; Gallium concentration 27.1 μM): 0.001
- OD600 nm (B. anthracis 7702 cells; Gallium concentration 88.9 μM): 0.003
- OD600 nm (B. anthracis 7702 cells; Gallium concentration 614.8 μM): 0.000
- OD600 nm (B. anthracis 7702 cells; Gallium concentration 1709.9 μM): 0.000
- bactericidal concentration (MBC) [2]: approximately 0.7 μg/mL
- minimum inhibitory concentration (MIC90) [2]: approximately 0.7 μg/mL
- protection after lethal i.t. Pa inoculation (Pa): good protection
